Source: patent publication US11091471B2, “Isoxazolyl ether derivatives as GABAA α5 PAM” (Hoffmann-La Roche Inc., priority 2016, dated 2021)
pKi: −log10 of the molar value.

Legend:
h-GABA-A α5β3γ2 [1] = target: T1, h-GABA-A α5β3γ2 (Homo sapiens (Human), UniProt P18507+P31644); test: [3H]flumazenil competition binding assay, membranes of HEK293 cells expressing human GABAA receptors; settings: Table 1, displacement of [3H]-Flumazenil 0.5 nM, mean of two determinations
Method: The affinity of compounds at GABAA receptor subtypes was measured by competition for [3H]flumazenil (85 Ci/mmol; Roche) binding to HEK293 cells expressing rat (stably transfected) or human (transiently transfected) receptors of composition α1β3γ2, α2β3γ2, α3β3γ2 and α5β3γ2.
Cell pellets were suspended in Krebs-tris buffer (4.8 mM KCl, 1.2 mM CaCl2, 1.2 mM MgCl2, 120 mM NaCl, 15 mM Tris; pH 7.5; binding assay buffer), homogenized by polytron for ca. 20 sec on ice and centrifuged for 60 min at 4° C. (50000 g; Sorvall, rotor: SM24=20000 rpm). The cell pellets were resuspended in Krebs-tris buffer and homogenized by polytron for ca. 15 sec on ice. Protein was measured (Bradford method, Bio-Rad) and aliquots of 1 mL were prepared and stored at 80° C.
Assays were incubated to equilibrium for 1 hour at 4° C. and harvested onto GF/C uni-filters (Packard) by filtration using a Packard harvester and washing with ice-cold wash buffer (50 mM Tris; pH 7.5). After drying, filter-retained radioactivity was detected by liquid scintillation counting. Ki values were calculated using Excel-Fit (Microsoft) and are the means of two determinations.

h-GABA-A α5β3γ2 [2] = target: T1, h-GABA-A α5β3γ2; test: Two-electrode voltage clamp electrophysiology in Xenopus oocytes expressing GABAA receptors, modulation of GABA EC20 current; type: cell-based; settings: for Efficacy (GABA) %: % modulation of GABA EC20
Method: Xenopus laevis oocytes at maturation stages V-VI were used for the expression of cloned mRNA encoding GABAA receptor subunits. Oocytes ready for RNA micro-injection were bought from Ecocyte, Castrop-Rauxel, Germany and stored in modified Barth's medium (composition in mM: NaCl 88, KCl 1, NaHCO3 2.4, HEPES 10, MgSO4 0.82, CaNO3 0.33, CaCl2 0.33, pH=7.5) at 20° C. until the experiment.
Oocytes were plated in 96-well plates to be used in an automated instrument (Robo-ocyte, MultiChannelSystems, Reutlingen, Germany) for microinjection and electrophysiological recordings. Approximately 50 nl of an aqueous solution containing the RNA transcripts for the subunits of the desired GABAA receptor was injected into each oocyte.
Electrophysiological experiments were performed on days 3 to 5 after the micro-injection of mRNA. During the experiment the oocytes were constantly superfused by a solution containing (in mM) NaCl 90, KCl 1, HEPES 5, MgCl2 1, CaCl2 1 (pH 7.4). Oocytes were impaled by two glass microelectrodes (resistance: 0.4 MΩ) which were filled with a solution containing KCl 1M+K-acetate 1.5 M and voltage-clamped to −80 mV. The recordings were performed at room temperature using the Roboocyte two-electrode voltage clamp system (Multichannelsystem). After an initial equilibration period of 1.5 min GABA was added for 1.5 min at a concentration evoking approximately 20% of a maximal current response (EC20). After another rest interval of 2.5 min GABA was again added evoking a response of similar amplitude and shape. […] Current traces were recorded at a digitization rate of 10 Hz during and shortly before and after the GABA application.
Each compound and concentration was tested on at least 3 oocytes.
For the analysis, the digitized current traces of the first and second GABA response were superimposed and, if necessary, rescaled to equal maximal amplitudes. The ratio between the two responses during the time interval of test compound application was calculated point by point. The extremum of the resulting “ratio trace” was taken as the efficacy (“Fold increase”) of the compound expressed as “% modulation of GABA EC20” (100*(Fold increase−1)).

[3] = Table 1, GABA at EC20, test compound at approx. 30 fold its Ki, Xenopus oocytes
[4] = Table 2, reference compounds, GABAA α5β3γ2 overexpressing oocytes

SMILES | pKi (h-GABA-A α5β3γ2 [1]) | Fold increase h-GABA-A α5β3γ2 oocyte (h-GABA-A α5β3γ2 [2]; [3]) | also measured
Cc1ccc(-c2noc(C)c2COc2ccc(C(=O)NC(C)C(F)(F)F)nn2)cn1 (racemic) [Example 34, (RS)-6-((5-methyl-3-(6-methylpyridin-3-yl)isoxazol-4-yl)methoxy)-N-(1,1,1-trifluoropropan-2-yl)pyridazine-3-carboxamide] | 7.88 |  | 
Cc1ccc(-c2noc(C)c2COc2ccc(C(=O)NC3CCS(=O)(=O)C3)nn2)cn1 (racemic) [Example 36, (RS)—N-(1,1-dioxothiolan-3-yl)-6-((5-methyl-3-(6-methylpyridin-3-yl)-1,2-oxazol-4-yl)methoxy)pyridazine-3-carboxamide] | 8.24 |  | 
Cc1ccc(-c2noc(C)c2COc2ccc(C(=O)NC3CCOC3)nn2)cn1 (racemic) [Example 45, (RS)-6-((5-methyl-3-(6-methylpyridin-3-yl)isoxazol-4-yl)methoxy)-N-(tetrahydrofuran-3-yl)pyridazine-3-carboxamide] | 8.18 |  | 
Cc1ccc(-c2noc(C)c2COc2ccc(C(=O)NC3CCOC(C)(C)C3)nn2)cn1 (racemic) [Example 58, (RS)—N-(2,2-dimethyltetrahydropyran-4-yl)-6-((5-methyl-3-(6-methylpyridin-3-yl)isoxazol-4-yl)methoxy)pyridazine-3-carboxamide] | 7.79 |  | 
Cc1ccc(-c2noc(C)c2COc2ccc(C(=O)NC3(C)CCOC3)nn2)cn1 (racemic) [Example 75, (RS)-6-((5-methyl-3-(6-methylpyridin-3-yl)isoxazol-4-yl)methoxy)-N-(3-methyltetrahydrofuran-3-yl)pyridazine-3-carboxamide] | 7.76 |  | 
Cc1ccc(-c2noc(C)c2COc2ccc(C(=O)N[C@@H]3CC[C@@H](O)C3)nn2)cn1 (racemic) [Example 152, N-((1RS,3RS)-3-hydroxycyclopentyl)-6-((5-methyl-3-(6-methylpyridin-3-yl)isoxazol-4-yl)methoxy)pyridazine-3-carboxamide] | 8.28 |  | 
CO[C@@H]1CC[C@@H](NC(=O)c2ccc(OCc3c(-c4ccc(C)nc4)noc3C)nn2)C1 (racemic) [Example 166, trans-N-((1RS,3RS)-3-methoxycyclopentyl)-6-((5-methyl-3-(6-methylpyridin-3-yl)isoxazol-4-yl)methoxy)pyridazine-3-carboxamide] | 8.12 | 1.7 | 
Cc1ccc(-c2noc(C)c2COc2ccc(C(=O)NC3CCCOCC3)nn2)cn1 (racemic) [Example 187, (RS)-6-((5-methyl-3-(6-methylpyridin-3-yl)isoxazol-4-yl)methoxy)-N-(oxepan-4-yl)pyridazine-3-carboxamide] | 7.83 |  | 
Cc1ccc(-c2noc(C)c2COc2ccc(C(=O)N[C@H]3CCCC[C@H]3O)nn2)cn1 [Example 23, N-((1S,2R)-2-hydroxycyclohexyl)-6-((5-methyl-3-(6-methylpyridin-3-yl)isoxazol-4-yl)methoxy)pyridazine-3-carboxamide] | 7.69 | 1.89 | 
Cc1ccc(-c2nocc2COc2ccc(C(=O)NC3CCOCC3)cn2)cn1 [Example 44, 6-((3-(6-methyl-3-pyridyl)isoxazol-4-yl)methoxy)-N-tetrahydropyran-4-yl-pyridine-3-carboxamide] | 7.12 | 1.54 | 
Cc1ccc(-c2noc(C)c2COc2ccc(C(=O)NC(C)(C)CCS(C)(=O)=O)nn2)cn1 [Example 80, 6-((5-methyl-3-(6-methylpyridin-3-yl)isoxazol-4-yl)methoxy)-N-(2-methyl-4-(methylsulfonyl)butan-2-yl)pyridazine-3-carboxamide] | 7.88 |  | 
Cc1ccc(-c2noc(C)c2COc2ccc(C(=O)N3C[C@@H]4C[C@H]3CO4)nn2)cn1 [Example 151, (1S,4S)-2-oxa-5-azabicyclo[2.2.1]heptan-5-yl(6-((5-methyl-3-(6-methylpyridin-3-yl)isoxazol-4-yl)methoxy)pyridazin-3-yl)methanone] | 7.34 | 1.68 | 
O=C(N[C@H]1CCOC1)c1ccc(OCc2c(-c3ccc(Cl)nc3)noc2C2CC2)nn1 [Example 179, (S)-6-((3-(6-chloropyridin-3-yl)-5-cyclopropylisoxazol-4-yl)methoxy)-N-(tetrahydrofuran-3-yl)pyridazine-3-carboxamide] | 7.37 | 1.82 | 
Cc1onc(-c2ccccn2)c1COc1ccc(C(=O)NC2CCOCC2)cn1 [RO-272, reference compound] |  |  | Efficacy (GABA) % (h-GABA-A α5β3γ2 [2]; Table 2, reference compounds): −32%; Fold increase h-GABA-A α5β3γ2 oocyte (h-GABA-A α5β3γ2 [2]; [4]): 0.68
Cc1onc(-c2ccc(Cl)cn2)c1COc1ccc(C(=O)NC2CCOCC2)cn1 [RO-301, reference compound] |  |  | Efficacy (GABA) % (h-GABA-A α5β3γ2 [2]; Table 2, reference compounds): −18%; Fold increase h-GABA-A α5β3γ2 oocyte (h-GABA-A α5β3γ2 [2]; [4]): 0.82
COC(=O)c1cc2c(cn1)[nH]c1ccccc12 [β-CCM, reference compound] |  |  | inhibition of the GABA-evoked current (h-GABA-A α5β3γ2 [2]; positive control (NAM) at a maximally effective concentration): ~50%; Fold increase (h-GABA-A α5β3γ2 [2]; positive control at a maximally effective concentration, 3-6 oocytes per 96-well plate): ~0.5
